Holding throughout (type): cell-based
In experiment [1] the test system is Enterobacteriaceae.
Experiment [2] deals with E. coli DH10B. Briefly: microbe, parasite or virus in culture. The note with it: Escherichia coli.
Experiment [3] deals with E. coli DH10B mcr-1 transformant. The experiment is described as follows: microbe, parasite or virus in culture. The conditions noted are these: Escherichia coli.
Experiment [4] concerns P. aeruginosa. The experiment is described as follows: microbe, parasite or virus in culture. The note with it: Pseudomonas aeruginosa, read-out: MICs.

≈ marks a conversion by molar mass, not a printed value.

For `CC(=N)NCC[C@@H]1CCC[C@@H](c2ccc(-n3cc4cc(-c5cc(CCC[C@@H](N)CO)cc(Cl)c5F)[nH]c4nc3=O)cc2F)N1` [RX-04C, N-(2-((2S,6S)-6-(4-(6-(5-((R)-4-amino-5-hydroxypentyl)-3-chloro-2-fluorophenyl)-2-oxo-2,7-dihydro-3H-pyrrolo[2,3-d]pyrimidin-3-yl)-2-fluorophenyl)piperidin-2-yl)ethyl)acetimidamide], the “peak of unimodal MIC distribution” value in experiment [1] stood at 2 µg/mL. Further, the MIC was 0.5 µg/mL (≈ 0.799 µM) in experiment [2], 0.5 µg/mL (≈ 0.799 µM) in experiment [3] and no less than 16 µg/mL in experiment [4].

The values are drawn from US12152031B2, “Biodefense agents” (priority 2018, dated 2024).
